{"source": "patent US5140037A", "about": "“Treatment of central nervous system disorders with imidazole angiotensin-II receptor antagonists” (E. I. du Pont de Nemours and Company, priority 1990, dated 1992)", "molecules": {"B1": {"name": "renin: Renin (Sigma Chemicals), a stimulator of endogenous AII biosynthesis (protein, UniProt P00797 67-406, looked up)", "Renin": "LTLGNTTSSVILTNYMDTQYYGEIGIGTPPQTFKVVFDTGSSNVWVPSSKCSRLYTACVYHKLFDASDSSSYKHNGTELTLRYSTGTVSGFLSQDIITVGGITVTQMFGEVTEMPALPFMLAEFDGVVGMGFIEQAIGRVTPIFDNIISQGVLKEDVFSFYYNRDSENSQSLGGQIVLGGSDPQHYEGNFHYINLIKTGVWQIQMKGVSVGSSTLLCEDGCLALVDTGASYISGSTSSIEKLMEALGAKKRLFDYVVKCNEGPTLPDISFHLGGKEYTLTSADYVFQESYSSKKLCTLAIHAMDIPPPTGPTWALGATFIRKFYTEFDRRNNRIGFALAR"}}, "key": {"AII-2 receptor": {"target": "T1, AII-2 receptor (Rattus norvegicus, UniProt P35351)", "T1 sequence (P35351 1-363)": "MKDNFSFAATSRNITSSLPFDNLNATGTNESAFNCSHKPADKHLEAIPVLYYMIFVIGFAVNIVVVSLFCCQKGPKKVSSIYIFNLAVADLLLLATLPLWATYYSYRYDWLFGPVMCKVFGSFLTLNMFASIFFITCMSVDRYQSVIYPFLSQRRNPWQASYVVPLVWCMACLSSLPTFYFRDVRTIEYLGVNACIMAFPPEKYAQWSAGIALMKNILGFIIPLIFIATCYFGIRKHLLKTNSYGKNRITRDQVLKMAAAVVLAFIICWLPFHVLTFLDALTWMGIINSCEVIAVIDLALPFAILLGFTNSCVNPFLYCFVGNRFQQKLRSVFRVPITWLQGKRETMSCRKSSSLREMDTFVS", "assay": "biochemical", "method": "IC50 was determined by displacement of [^125 I]AII from the receptor by the indicated compound."}, "AII-1 receptor subtype": {"test_system": "AII-1 receptor subtype", "assay": "Block of AII receptor subtypes, AII-1 (statement in words)", "assay_type": "binding"}, "AII-1 receptor": {"target": "AII-1 receptor", "assay": "AII-1 site binding: displacement of [125I]AII in adrenal cortex microsomes in presence of 10^-5 M EXP655 (Table 1)", "set-up": "species or system rat", "details": "10^-5 M EXP655 present, [125I]AII displacement"}, "AII-2 receptor subtype": {"test_system": "AII-2 receptor subtype", "assay": "Block of AII receptor subtypes, AII-2 (statement in words)", "assay_type": "binding"}, "[1]": {"test_system": "renin-induced amnesia (passive avoidance)", "assay": "Renin-disrupted passive avoidance retention", "assay_type": "in vivo, male Sprague-Dawley rats", "details": "for effect on renin-induced amnesia: IVT, co-administered with renin", "description": "RENIN-DISRUPTED PASSIVE AVOIDANCE RETENTION\nExperimentally naive male Sprague-Dawley rats 100 to 125 days oil (Charles River Breeding Laboratories, Kingston, N.Y.), weighing between 175 to 200 gm were used. The animals were housed four per cage (45.0L×20.0H×26.0W cm) with free access to food and water. They were maintained on a 12 h light/dark cycle (lights on 0600 h) and at a room temperature of 22±1° C. with relative humidity of 50±10%.\nThe experimental sessions were conducted in a two-compartment passive avoidance box. One compartment, made of clear plastic with a perforated clear plastic floor, measured 21(L)×24.5(H)×17(W) cm and was illuminated with a 60 watt incandescent light bulb placed 36 cm above the floor. The other compartment, made of black plastic, measured 30.5 (L)×20.3 (H)×21.5 (W) cm with a floor made of 4 mm stainless steel rods spaced 1.2 cm apart. A grid floor shocker (Coulbourn Instruments) was connected to the steel rods and provided scrambled footshock. The two compartments were separated by a solenoid-operated slide door (Lafayette Instrument Co., Lafayette, Ind.). An electronic counter (Coulbourn Instruments), triggered by the opening or closing of the slide door, recorded acquisition and retention latencies (latencies were defined as the time it took an animal to enter the dark compartment).\nPassive avoidance training began by placing the rat into the clear compartment of the two-compartment passive avoidance box. Following a 10 sec delay, the slide door to the dark compartment was raised. Once the rat moved completely into the dark compartment (all four paws on the shock grid floor) the slide door was lowered, and after a 10 sec. delay, a 1.0 mA shock was applied to the grid floor for three sec. A second three s shock was delivered after an additional 10 sec delay. The rats were immediately removed from the dark compartment and returned to their home cage. A retention test was given 24 h later. It proceeded in the same manner as the training session except that no shock was applied to the grid floor when the rats were provided access to the dark compartment for a maximum of 300 sec.\nAll drugs were administered IVT 60 minutes prior to acquisition training in a volume of 5 μl. Doses are expressed as the free base weight of each compound."}, "[2]": {"test_system": "AII binding sites in the brain", "assay": "Binding of AII antagonists to sections of brain slices"}, "[3]": {"test_system": "scopolamine-induced amnesia", "details": "three times per day, 1, 3 and 10 mg/kg PO; cited from earlier work"}, "[4]": {"test_system": "ACh in the striatum and hypothalamus", "details": "acute or repeated administration; cited from earlier work"}, "uphill avoidance": {"test_system": "uphill avoidance", "details": "acute, 30 mg/kg PO; cited from earlier work"}, "[5]": {"test_system": "scopolamine-induced impairment of eight arm radial maze performance", "details": "3 mg/kg IP; cited from earlier work"}, "[6]": {"test_system": "memory of previously learned tasks", "details": "in vivo; cited from earlier work"}, "light/dark habituation": {"test_system": "light/dark habituation", "details": "cited from earlier work"}, "avoidance learning": {"test_system": "avoidance learning", "details": "cited from earlier work"}, "[7]": {"test_system": "passive avoidance response", "details": "injected into dorsal neostriatum; cited from earlier work"}, "[8]": {"test_system": "potassium-stimulated release of [3H]ACh", "details": "rat entorhinal cortex, cited from earlier work"}, "[9]": {"test_system": "AII in cerebrospinal fluid (CSF)", "details": "cited from earlier work"}}, "note": "Entries after “also recorded” stand apart in the source; their conditions may differ.", "data": [{"molecule": "CCCc1nc(-c2ccccc2)c(C=O)n1Cc1ccc(-c2ccccc2-c2nnn[nH]2)cc1", "note": "[Compound A, 1-[(2'-(1H tetrazol-5-yl)biphenyl-4-yl)methyl]-4-phenyl-2-propylimidazole-5-carboxaldehyde]", "values": [{"measurement": "IC50", "setting": "AII-2 receptor", "result": 2400, "unit": "nM"}, {"measurement": "AII-1 receptor block / affinity", "setting": "AII-1 receptor subtype", "result": "show affinity for both AII-1 and AII-2 receptors"}, {"measurement": "IC50", "setting": "AII-1 receptor", "result": 22, "unit": "nM"}, {"measurement": "AII-2 receptor block / affinity", "setting": "AII-2 receptor subtype", "result": "show affinity for both AII-1 and AII-2 receptors"}]}, {"molecule": "CCCc1nc(-c2ccccc2)c(C=O)n1Cc1ccc(-c2ccccc2C(=O)O)cc1", "note": "[Compound B, 1-[(2'-carboxybiphenyl-4-yl)methyl]-4-phenyl-2-propylimidazole-5-carboxaldehyde]", "values": [{"measurement": "IC50", "setting": "AII-2 receptor", "result": 4300, "unit": "nM"}, {"measurement": "AII-1 receptor block / affinity", "setting": "AII-1 receptor subtype", "result": "show affinity for both AII-1 and AII-2 receptors"}, {"measurement": "IC50", "setting": "AII-1 receptor", "result": 290, "unit": "nM"}, {"measurement": "AII-2 receptor block / affinity", "setting": "AII-2 receptor subtype", "result": "show affinity for both AII-1 and AII-2 receptors"}]}, {"molecule": "CCCc1nc(C(F)(F)F)c(C(=O)O)n1Cc1ccc(-c2ccccc2-c2nnn[nH]2)cc1", "note": "[Compound C, 2-n-propyl-1-[(2'-(1H -tetrazol-5-yl)biphenyl-4-yl)methyl]-4-trifluoromethylimidazole-5-carboxylic acid]", "values": [{"measurement": "AII-1 receptor block / affinity", "setting": "AII-1 receptor subtype", "result": "AII-1 receptor antagonists"}, {"measurement": "effect on renin-induced amnesia", "setting": "[1]", "result": "protected against the amnesia"}]}, {"molecule": "CCCc1nc(C(F)(F)F)c(CO)n1Cc1ccc(-c2ccccc2-c2nnn[nH]2)cc1", "note": "[Compound D, 2-n-propyl-5-hydroxymethyl-1-[(2'-(1H-tetrazol-5-yl)biphenyl-4-yl)methyl]-4-trifluoromethylimidazole]", "values": [{"measurement": "AII-1 receptor block / affinity", "setting": "AII-1 receptor subtype", "result": "AII-1 receptor antagonists"}, {"measurement": "effect on renin-induced amnesia", "setting": "[1]", "result": "protected against the amnesia"}]}, {"molecule": "Cc1cc(Cn2cnc3c2CC(C(=O)O)N(C(=O)C(c2ccccc2)c2ccccc2)C3)ccc1N", "note": "(stereo not drawn) [EXP655, 1-(4-amino-3-methylphenyl)methyl-5-diphenylacetyl-4,5,6,7-tetrahydro-1H-imidazo[4,5-c]pyridine-6-carboxylic acid]", "values": [{"measurement": "effect on renin-induced amnesia", "setting": "[1]", "result": "much less effective in preventing the amnesia"}, {"measurement": "IC50", "setting": "AII-1 receptor", "result": 300000, "unit": "nM"}, {"measurement": "sensitivity of AII binding sites in the brain", "setting": "[2]", "result": "the majority of binding sites in the brain are DTT-insensitive and EXP655-sensitive"}]}, {"molecule": "CCOC(=O)C(CCc1ccccc1)NC(C)C(=O)N1CC2(CC3CCC2CC3)CC1C(=O)O", "note": "(stereo not drawn) [Hoe 288]", "values": [{"measurement": "scopolamine-induced PA amnesia", "setting": "[3]", "result": "partially reversed the amnesia"}, {"measurement": "ACh in the striatum and hypothalamus", "setting": "[4]", "result": "significant decrease in ACh in the striatum and hypothalamus"}, {"measurement": "uphill avoidance performance during retention testing", "setting": "uphill avoidance", "result": "improved performance during retention testing"}, {"measurement": "effects of muscarinic receptor blockade on radial maze performance", "setting": "[5]", "result": "partially antagonized the effects of muscarinic receptor blockade"}]}, {"molecule": "NCCCC[C@H](OP(=O)(O)CCCCc1ccccc1)C(=O)N1CCC[C@H]1C(=O)O", "note": "[SQ 29852]", "values": [{"measurement": "anticholinergic effect on performance", "setting": "[6]", "result": "ameliorate, at least in part, an anticholinergic effect on performance"}, {"measurement": "effects on memory of previously learned tasks", "setting": "[6]", "result": "protective effects on memory of previously learned tasks"}]}, {"molecule": "CNCC(=O)N[C@@H](CCCN=C(N)N)C(=O)N[C@H](C(=O)N[C@@H](Cc1ccc(O)cc1)C(=O)N[C@H](C(=O)N[C@@H](Cc1cnc[nH]1)C(=O)N1CCC[C@H]1C(=O)N[C@@H](C)C(=O)O)C(C)C)C(C)C", "note": "[Saralasin]", "values": [{"measurement": "IC50", "setting": "AII-2 receptor", "result": 0.3, "unit": "nM"}, {"measurement": "IC50", "setting": "AII-1 receptor", "result": 0.7, "unit": "nM"}]}, {"molecule": "C[C@H](CS)C(=O)N1CCC[C@H]1C(=O)O", "note": "[captopril]", "values": [{"measurement": "scopolamine-induced disruption of light/dark habituation performance", "setting": "light/dark habituation; daily treatment", "result": "prevented"}, {"measurement": "rate of acquisition of light/dark habituation performance", "setting": "light/dark habituation; subchronic treatment", "result": "increased the rate of acquisition of light/dark habituation performance"}, {"measurement": "renin-induced avoidance disruption", "setting": "avoidance learning; captopril IVT prior to renin", "result": "prevented the renin-induced avoidance disruption"}, {"measurement": "effect of captopril on renin-induced amnesia", "setting": "[1]; IVT captopril, applicant's laboratory", "result": "renin-induced amnesia can be prevented"}]}, {"molecule": "NC(=O)[C@@H]1CCCN1C(=O)[C@H](Cc1cnc[nH]1)NC(=O)[C@@H]1CCC(=O)N1", "note": "[thyrotropin releasing hormone]", "values": [{"measurement": "retention of passive avoidance response", "setting": "[7]", "result": "no effect"}]}, {"molecule": "AII: Angiotensin II (AII), a circulating hormone, now thought to act as a neuropeptide in the central nervous system (DRVYIHPF; Angiotensin-2; UniProt P01019 25-32, looked up)", "values": [{"measurement": "retention of passive avoidance response", "setting": "[7]", "result": "showed a disruption in retention of a PA response"}, {"measurement": "basal ACh levels", "setting": "[8]", "result": "without effects on basal levels"}, {"measurement": "potassium-stimulated release of ACh", "setting": "[8]", "result": "reduced potassium-stimulated release of ACh"}, {"measurement": "IC50", "setting": "AII-1 receptor", "result": 1.5, "unit": "nM"}]}, {"molecule": "[1-sarcosine, 8-threonine]angiotensin II", "values": [{"measurement": "antagonism of AII effect on ACh release", "setting": "[8]; with AII", "result": "antagonized"}]}, {"molecule": "lysine-8-vasopressin", "values": [{"measurement": "retention of passive avoidance response", "setting": "[7]", "result": "no effect"}]}, {"molecule": "B1", "values": [{"measurement": "AII in CSF after renin", "setting": "[9]; renin IVT", "result": "about 5,000 fmol per mL"}, {"measurement": "AII in CSF before renin", "setting": "[9]; starting level", "result": 40, "unit": "fmol per mL"}, {"measurement": "avoidance learning", "setting": "avoidance learning; renin IVT", "result": "disruption of avoidance learning"}, {"measurement": "memory effect of renin", "setting": "[1]; renin IVT", "result": "produces a reliable memory deficit; also recorded: produces a dose-related amnesia in a PA task"}, {"measurement": "Median Retention Latency", "setting": "[1]; renin alone 5.0 μg/5 μL IVT", "result": 17, "unit": "s"}]}]}
